Experiment [1] relates to 35S::GFP-PYR1 expressing transgenic plants. As to the kind of experiment: thermal imaging of leaf temperature. Type of experiment: in vivo, Arabidopsis. The conditions noted are these: 35S::GFP-PYR1, 2 μM, 24 hours. As for the experimental part: (§1) To investigate if the system is sufficient to control ABA responses in vegetative tissues, we generated homozygous transgenic lines for two 35S-driven lines (E15 and E16) and 2 RBCS-driven lines (F29 and F34). These materials were grown along side wild type plants and a previously constructed 35S::GFP-PYR1 over expression line (Park et al., 2009). These plants were grown until three weeks old and then treated with a solution containing either 2 μM mandipropamid and 0.02% Silwet or a mock treatment containing 0.02% Silwet and the mandipropamid carrier solvent (DMSO). 24 hours after treatment, the leaf temperatures were examined using a thermal imaging camera. It is well known that ABA-induced guard cell closure reduces transpiration, which leads to increases in leaf temperatures. […] Since guard cell aperture is the primary determinant of transpiration rates, thermal imaging is a useful way to indirectly infer relative transpiration rates and guard cell aperture at the whole plant level. As is shown in FIG. 3, mandipropamid treatment of homozygous PYR1^MANDI expressing transgenic plants leads to large changes in leaf temperature (˜2° C. increase) within 24 hours of treatment.

Experiment [2] has as its system wild type plants. As to the kind of experiment: thermal imaging of leaf temperature. Type of experiment: in vivo, Arabidopsis. Particulars: 2 μM, 24 hours. As for the experimental part:
as §1

The target in experiment [3] is T1, PYR1 K59R F108A S122G V164I (Arabidopsis thaliana, UniProt O49686, F108A/K59R/S122G/V164I).
T1 construct: expressed in transfected cells; host or cells: S. cerevisiae Y190 pACT-HAB1
As to the kind of experiment: Y2H NNK Mutagenesis (HAB1, X-gal). Type of experiment: cell-based. As for the experimental part:
(§2) The preceding efforts identified PYR1^K59R,F108A,S122G, which is responsive to mandipropamid concentrations as low as 1 μM. We next attempted to improve the mandipropamid receptor by screening for additional pocket-located mutations that improve compound responsiveness. We subjected PYR1^K59R,F108A,S122G to two separate mutagenesis experiments. We first examined the effects of adding single additional mutations at each of the other 23 ligand-contacting residues that are not altered in the PYR1^K59R,F108A,S122G backbone, using NNK codon-randomization primers. Each NNK primer was used to generate a pool of PYR1^K59R,F108A,S122G receptors containing additional mutations at a single ligand-contacting residue. DNA for this mutant pool was prepared and then transformed into a pACT-HAB1 MAV99 reporter strain, which allows URA3 based selection of active receptors (Peterson et al., 2010). The pooled yeast cells were plated on media containing 0.5 μM mandipropamid, a concentration too low to allow growth of a control MAV99 pACT-HAB1 reporter strain expressing pBD-PYR1^K59R,F108A,S122G. […] Mutants enabling ligand-dependent interactions were sequenced and plasmid DNA for these mutants was isolated and introduced into Y190 pACT-HAB1 so that X-gal staining could be utilized to evaluate receptor sensitivity. This process was repeated for each of the remaining 22 NNK primers. These efforts yielded 10 mutations (V81C, V81I, V81T, V83L, L87A, F159L, F159M, F159V, A160V, V164I) that enhance the mandipropamid sensitivity of PYR1^K59R,F108A,S122G (see entries labeled “NNK Mutagenesis Screen” in Table 1).

Experiment [4] addresses T2, PYR1 K59R F108A S122G V83L (Arabidopsis thaliana, UniProt O49686, F108A/K59R/S122G/V83L).
T2 construct: expressed in transfected cells; host or cells: S. cerevisiae Y190 pACT-HAB1
As to the kind of experiment: Y2H NNK Mutagenesis (HAB1, X-gal). Type of experiment: cell-based. As for the experimental part: as §2

In experiment [5] the target is T3, PYR1 K59R F108A S122G V81C (Arabidopsis thaliana, UniProt O49686, F108A/K59R/S122G/V81C).
T3 construct: expressed in transfected cells; host or cells: S. cerevisiae Y190 pACT-HAB1
As to the kind of experiment: Y2H NNK Mutagenesis (HAB1, X-gal). Format: cell-based. As for the experimental part:
as §2

The target of experiment [6] is T4, PYR1 K59R F108A S122G A160V (Arabidopsis thaliana, UniProt O49686, A160V/F108A/K59R/S122G).
T4 construct: expressed in transfected cells; host or cells: S. cerevisiae Y190 pACT-HAB1
As to the kind of experiment: Y2H NNK Mutagenesis (HAB1, X-gal). Format: cell-based. As for the experimental part:
as §2

In experiment [7] the target is T5, PYR1 K59R F108A S122G V81T (Arabidopsis thaliana, UniProt O49686, F108A/K59R/S122G/V81T).
T5 construct: expressed in transfected cells; host or cells: S. cerevisiae Y190 pACT-HAB1
As to the kind of experiment: Y2H NNK Mutagenesis (HAB1, X-gal). Format: cell-based. As for the experimental part: as §2

The target in experiment [8] is T6, PYR1 K59R F108A S122G F159L (Arabidopsis thaliana, UniProt O49686, F108A/F159L/K59R/S122G).
T6 construct: expressed in transfected cells; host or cells: S. cerevisiae Y190 pACT-HAB1
As to the kind of experiment: Y2H NNK Mutagenesis (HAB1, X-gal). Type of experiment: cell-based. As for the experimental part: as §2

In experiment [9] the target is T7, PYR1 K59R F108A S122G F159M (Arabidopsis thaliana, UniProt O49686, F108A/F159M/K59R/S122G).
T7 construct: expressed in transfected cells; host or cells: S. cerevisiae Y190 pACT-HAB1
As to the kind of experiment: Y2H NNK Mutagenesis (HAB1, X-gal). Type of experiment: cell-based. As for the experimental part:
as §2

Experiment [10] addresses T8, PYR1 K59R F108A S122G V81I (Arabidopsis thaliana, UniProt O49686, F108A/K59R/S122G/V81I).
T8 construct: expressed in transfected cells; host or cells: S. cerevisiae Y190 pACT-HAB1
As to the kind of experiment: Y2H NNK Mutagenesis (HAB1, X-gal). Type of experiment: cell-based. On the procedure: as §2

In experiment [11] the target is T9, PYR1 K59R F108A S122G F159V (Arabidopsis thaliana, UniProt O49686, F108A/F159V/K59R/S122G).
T9 construct: expressed in transfected cells; host or cells: S. cerevisiae Y190 pACT-HAB1
As to the kind of experiment: Y2H NNK Mutagenesis (HAB1, X-gal). Format: cell-based. As for the experimental part: as §2

Experiment [12] concerns the target T10, PYR1 K59R F108A S122G L87A (Arabidopsis thaliana, UniProt O49686, F108A/K59R/L87A/S122G).
T10 construct: expressed in transfected cells; host or cells: S. cerevisiae Y190 pACT-HAB1
As to the kind of experiment: Y2H NNK Mutagenesis (HAB1, X-gal). Type of experiment: cell-based. On the procedure: as §2

T9 sequence (O49686 whole entry K59R/F108A/S122G/F159V): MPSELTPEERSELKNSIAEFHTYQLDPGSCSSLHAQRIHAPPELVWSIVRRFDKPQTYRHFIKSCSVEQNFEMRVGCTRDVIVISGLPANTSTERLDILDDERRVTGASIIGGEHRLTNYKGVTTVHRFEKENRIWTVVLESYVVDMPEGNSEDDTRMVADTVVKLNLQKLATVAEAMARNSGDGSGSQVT
T9 sequence (Q9CAJ0 23-511 partner): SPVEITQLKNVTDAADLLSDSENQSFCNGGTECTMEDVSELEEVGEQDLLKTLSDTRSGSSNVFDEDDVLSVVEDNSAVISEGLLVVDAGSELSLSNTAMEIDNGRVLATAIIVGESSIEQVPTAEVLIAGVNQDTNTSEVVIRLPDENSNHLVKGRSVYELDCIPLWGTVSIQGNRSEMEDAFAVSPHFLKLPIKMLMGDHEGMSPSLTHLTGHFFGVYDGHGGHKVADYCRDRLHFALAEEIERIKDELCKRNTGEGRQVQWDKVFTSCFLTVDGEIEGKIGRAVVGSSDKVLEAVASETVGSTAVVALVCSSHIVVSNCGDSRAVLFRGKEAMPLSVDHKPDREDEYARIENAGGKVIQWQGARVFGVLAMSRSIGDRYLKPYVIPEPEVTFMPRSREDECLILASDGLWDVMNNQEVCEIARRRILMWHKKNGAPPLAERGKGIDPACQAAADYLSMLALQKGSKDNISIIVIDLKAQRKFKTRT
T5 sequence (O49686 whole entry K59R/V81T/F108A/S122G): as the sequence (O49686 whole entry K59R/F108A/S122G/F159V) above, with V81T, V159F counted along it
T5 sequence (Q9CAJ0 23-511 partner): as the sequence (Q9CAJ0 23-511 partner) above
T6 sequence (O49686 whole entry K59R/F108A/S122G/F159L): as the sequence (O49686 whole entry K59R/F108A/S122G/F159V) above, with V159L counted along it
T6 sequence (Q9CAJ0 23-511 partner): as the sequence (Q9CAJ0 23-511 partner) above
T1 sequence (O49686 whole entry K59R/F108A/S122G/V164I): as the sequence (O49686 whole entry K59R/F108A/S122G/F159V) above, with V159F, V164I counted along it
T1 sequence (Q9CAJ0 23-511 partner): as the sequence (Q9CAJ0 23-511 partner) above
T7 sequence (O49686 whole entry K59R/F108A/S122G/F159M): as the sequence (O49686 whole entry K59R/F108A/S122G/F159V) above, with V159M counted along it
T7 sequence (Q9CAJ0 23-511 partner): as the sequence (Q9CAJ0 23-511 partner) above
T2 sequence (O49686 whole entry K59R/V83L/F108A/S122G): as the sequence (O49686 whole entry K59R/F108A/S122G/F159V) above, with V83L, V159F counted along it
T2 sequence (Q9CAJ0 23-511 partner): as the sequence (Q9CAJ0 23-511 partner) above
T10 sequence (O49686 whole entry K59R/L87A/F108A/S122G): as the sequence (O49686 whole entry K59R/F108A/S122G/F159V) above, with L87A, V159F counted along it
T10 sequence (Q9CAJ0 23-511 partner): as the sequence (Q9CAJ0 23-511 partner) above
T3 sequence (O49686 whole entry K59R/V81C/F108A/S122G): as the sequence (O49686 whole entry K59R/F108A/S122G/F159V) above, with V81C, V159F counted along it
T3 sequence (Q9CAJ0 23-511 partner): as the sequence (Q9CAJ0 23-511 partner) above
T4 sequence (O49686 whole entry K59R/F108A/S122G/A160V): as the sequence (O49686 whole entry K59R/F108A/S122G/F159V) above, with V159F, A160V counted along it
T4 sequence (Q9CAJ0 23-511 partner): as the sequence (Q9CAJ0 23-511 partner) above
T8 sequence (O49686 whole entry K59R/V81I/F108A/S122G): as the sequence (O49686 whole entry K59R/F108A/S122G/F159V) above, with V81I, V159F counted along it
T8 sequence (Q9CAJ0 23-511 partner): as the sequence (Q9CAJ0 23-511 partner) above

Take `C#CCOc1ccc(CCNC(=O)C(OCC#C)c2ccc(Cl)cc2)cc1OC` (stereo not drawn) [Mandipropamid, mandipropamid]: the “leaf temperature effect of mandipropamid” value in [1] and in experiment [2] was “not observed” each time. Also, the Threshold came out at 0.25 µM in experiment [3]; 0.05 µM in experiment [4]; 0.25 µM in experiment [5]; 0.25 µM in experiment [6]; 0.25 µM in [7]; 0.05 µM in experiment [8]. In addition, the Threshold in [9], in experiment [10], in experiment [11] and in [12] was 0.25 µM each time.

The values are drawn from patent US9738902B2, “Modified PYR/PYL receptors activated by ligands” (priority 2013, dated 2017).
